Measurements published in PMC11352859, “Functionalized Congeners of 2H-Chromene P2Y6 Receptor Antagonists” (Cells, 2024).

Columns and labels:
5-HT1A = target: T1, 5-HT1A (Homo sapiens, UniProt P08908); assay: PDSP binding assay, 5-HT1A; conditions: Table S2, single determination
T1 construct: NIMH Psychoactive Drug Screening Program (PDSP)
Text: (§1) Table S2. Off-target screening (to replace table later). We thank Dr. Bryan L. Roth (Univ. North Carolina at Chapel Hill) and National Institute of Mental Health's Psychoactive Drug Screening Program (Contract # HHSN-271-2008-00025-C) for screening data. Reference: Besnard et al.
(§2) Procedures: https://pdsp.unc.edu/pdspweb/content/UNC-CH%20Protocol%20Book.pdf […]
(§3) nucleosides were found at the following sites (human unless noted): 5HT1A, 5HT1B, 5HT1D, […]
(§4) β3, BZP rat brain site, D1, D2, D3, D4, D5, GABAA, H1, H2, H3, H4, M1, M2, M5, δ-opioid receptor (DOR), κ-opioid receptor (KOR), μ-opioid receptor (MOR), σ1, σ2, DAT, NET, SERT. Ki values […]
(§5) Compound # PDSP # Receptor LogKi Ki (nM)

D4 = target: T2, D4 (Homo sapiens, UniProt P21917); assay: PDSP binding assay, D4; conditions: mean, n = 2
T2 construct: NIMH Psychoactive Drug Screening Program (PDSP)
T2 sequence (P21917 whole entry): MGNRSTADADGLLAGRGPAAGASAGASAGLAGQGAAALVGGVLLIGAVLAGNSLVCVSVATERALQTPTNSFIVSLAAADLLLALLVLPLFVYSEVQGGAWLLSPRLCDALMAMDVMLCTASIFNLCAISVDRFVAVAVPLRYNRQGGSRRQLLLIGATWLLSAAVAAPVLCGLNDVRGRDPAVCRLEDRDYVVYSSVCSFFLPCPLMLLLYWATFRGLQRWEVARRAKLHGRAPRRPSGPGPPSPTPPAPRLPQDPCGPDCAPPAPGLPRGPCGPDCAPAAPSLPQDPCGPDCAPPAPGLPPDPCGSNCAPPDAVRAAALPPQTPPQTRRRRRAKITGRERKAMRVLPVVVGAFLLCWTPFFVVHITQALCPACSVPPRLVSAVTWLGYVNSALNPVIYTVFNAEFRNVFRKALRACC
Text: as §1, §2, §3, §4, §5

[1] = test system: hP2Y6R-1321N1 human astrocytoma cells; assay: MTT cell viability assay, hP2Y6R-1321N1 astrocytoma cells; assay type: cell-based; conditions: for % survival: P2Y6R-astrocytoma, 12 h, MTT
Description: The 1321N1 astrocytoma (hP2Y6R-overexpressing) and HeLa (non-transfected) cell lines were cultured in Dulbecco’s modified Eagle’s medium (DMEM, HyClone, Logan, UT, USA) supplemented with 5% heat-inactivated fetal bovine serum (FBS, HyClone, UT, USA), 100 U/mL penicillin, and 100 µg/mL streptomycin in 5% CO2 at 37 °C. The cell viability was determined using an MTT kit (Sigma, St. Louis, MO, USA) according to the manufacturer’s instructions. Briefly, 1 × 10^4 cells were seeded in triplicate in 96-well plates. The hP2Y6R-astrocytoma and HeLa cells were treated with a P2Y6R agonist and antagonists at a range of concentrations and incubated for 12 h. The cell viability was measured at 490 nm using a SpectraMax-M5 Spectrometer (Molecular Devices, San Jose, CA, USA).

hP2Y14R = target: T3, hP2Y14R (Homo sapiens, UniProt Q15391); assay: whole-cell binding of fluorescent antagonist MRS4174 in CHO-hP2Y14R cells (flow cytometry)
T3 construct: expressed in transfected cells
T3 sequence (Q15391 1-338): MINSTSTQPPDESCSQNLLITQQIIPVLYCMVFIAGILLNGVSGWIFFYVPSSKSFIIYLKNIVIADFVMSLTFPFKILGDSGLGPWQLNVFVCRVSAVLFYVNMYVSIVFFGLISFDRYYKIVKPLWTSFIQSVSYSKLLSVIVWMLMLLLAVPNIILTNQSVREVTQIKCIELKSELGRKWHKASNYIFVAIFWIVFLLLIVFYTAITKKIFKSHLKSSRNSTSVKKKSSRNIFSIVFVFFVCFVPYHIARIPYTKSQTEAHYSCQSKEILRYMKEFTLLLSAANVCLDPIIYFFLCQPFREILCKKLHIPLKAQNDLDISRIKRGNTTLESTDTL

T1 sequence (P08908 whole entry): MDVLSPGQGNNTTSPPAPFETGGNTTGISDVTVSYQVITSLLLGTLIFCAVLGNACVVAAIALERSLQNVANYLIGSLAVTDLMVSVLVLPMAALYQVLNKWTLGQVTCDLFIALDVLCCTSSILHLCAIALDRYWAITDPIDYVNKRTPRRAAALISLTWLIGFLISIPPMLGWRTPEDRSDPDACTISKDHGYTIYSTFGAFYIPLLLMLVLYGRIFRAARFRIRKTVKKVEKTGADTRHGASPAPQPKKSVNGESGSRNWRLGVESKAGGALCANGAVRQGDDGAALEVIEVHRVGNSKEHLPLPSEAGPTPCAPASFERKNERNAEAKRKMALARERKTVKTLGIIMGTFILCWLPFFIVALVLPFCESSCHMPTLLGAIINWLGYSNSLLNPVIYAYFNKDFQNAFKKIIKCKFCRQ

## CC(C)(C)OC(=O)NCCCCCCCC#Cc1ccc2c(c1)C=C([N+](=O)[O-])C(C(F)(F)F)O2 (stereo not drawn) [Compound 30, tert-Butyl (9-(3-nitro-2-(trifluoromethyl)-2H-chromen-6-yl)non-8-yn-1-yl)carbamate]
5-HT1A
  Ki: > 10000 nM
D4
  Ki: 3.1 µM
[1]; 0.05 µM
  % survival: 98%
[1]; 0.1 µM
  % survival: 98%
[1]; 0.5 µM
  % survival: 83%
[1]; 1 µM
  % survival: 77%
[1]; hP2Y6R-1321N1 cells, at 1 µM, 12 h exposure
  inhibition of viability: 23%
hP2Y14R; CHO-hP2Y14, competitive binding, flow cytometer
  IC50: 21.4 ± 5.8 µM
hP2Y14R; hP2Y6R vs hP2Y14R
  fold selective compared to the hP2Y14R: 132 fold
